Reference: US8492559B2, “Substituted indole compounds” (Gruenenthal GmbH, priority 2009, dated 2013)

Target: T1, B1R receptor of the rat (rB1R) (Rattus norvegicus, UniProt P97583)
T1 construct: expressed in transfected cells; host or cells: CHO K1 cells
T1 sequence (P97583 1-337): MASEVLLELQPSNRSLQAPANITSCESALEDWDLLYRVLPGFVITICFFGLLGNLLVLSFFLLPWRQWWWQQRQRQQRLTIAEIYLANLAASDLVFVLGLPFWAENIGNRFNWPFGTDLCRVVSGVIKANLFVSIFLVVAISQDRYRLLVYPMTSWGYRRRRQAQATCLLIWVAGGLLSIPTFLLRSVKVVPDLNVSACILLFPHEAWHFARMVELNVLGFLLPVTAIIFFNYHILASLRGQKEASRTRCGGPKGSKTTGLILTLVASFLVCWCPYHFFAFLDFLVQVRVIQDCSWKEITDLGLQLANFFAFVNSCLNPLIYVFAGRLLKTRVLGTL
Assay: Functional investigation on the bradykinin 1 receptor (B1R), FLIPR Ca2+ assay, rB1R cells
Type: cell-based
Details: CHO-K1, 10 μM test substance; CHO K1 cells with rat B1R; agonist Des-Arg9 bradykinin; % of maximum achievable inhibition; read-out: B1R antagonism, rat [10 μM] % inhibition
Method: The indication in % activation is based on the Ca^2+ signal after addition of Lys-Des-[…] bradykinin (0.5 nM) or Des-[…] bradykinin (100 nM). Antagonists lead to a suppression of the Ca^2+ influx following administration of the agonist. The % inhibition in comparison with the maximum achievable inhibition is indicated. […] According to this assay, the Ca^2+ inflow through the channel is quantified with the aid of a Ca^2+-sensitive dye (Fluo-4 type, Molecular Probes Europe BV, Leiden, Netherlands) in a fluorescent imaging plate reader (FLIPR, Molecular Devices, Sunnyvale, USA). […] For functional investigations these cells are plated-out onto black 96-well plates with a clear base (BD Biosciences, Heidelberg, Germany or Greiner, Frickenhausen, Germany) in a density of 20,000-35,000 cells/well. Overnight the cells are incubated at 37° C. and 5% CO2 in culture medium (hB1R cells: Ham's Nutrient Mixture F12, Gibco Invitrogen GmbH, Karlsruhe, Germany or DMEM, Sigma-Aldrich, Taufkirchen, Germany; rB1R cells: D-MEM/F12, Gibco Invitrogen, Karlsruhe, Germany) with 10 vol. % FBS (foetal bovine serum, Gibco Invitrogen GmbH, Karlsruhe, Germany or PAN Biotech GmbH, Aidenbach, Germany). On the following day the cells are loaded with 2.13 μM Fluo-4 (Molecular Probes Europe BV, Leiden, Netherlands) in HBSS buffer (Hank's buffered saline solution, Gibco Invitrogen GmbH, Karlsruhe, Germany) with 2.5 mM probenecid (Sigma-Aldrich, Taufkirchen, Germany) and 10 mM HEPES (Sigma-Aldrich, Taufkirchen, Germany) for 60 min at 37° C. […] Sigma-Aldrich, Taufkirchen, Germany), 5.6 mM glucose and 0.05% gelatine (Merck KGaA, Darmstadt, Germany) is added. After a further incubation of 20 minutes at room temperature, the plates are inserted into the FLIPR for Ca^2+ measurement. Alternatively they are washed with buffer A (15 mM HEPES, 80 mM NaCl, 5 mM KCl, 1.2 mM CaCl2, 0.7 mM MgSO4, 2 g/l glucose, 2.5 mM probenecid) and loaded with buffer A with added 2.5 μM Fluo-4 and 0.025% Pluronic F127 (Sigma-Aldrich, Taufkirchen, Germany). The cells are then washed twice with buffer A and incubated for 30 minutes with buffer A, which additionally contains 0.05% BSA and 0.05% gelatine, at room temperature and then used for Ca^2+ measurement in the FLIPR. The Ca^2+-dependent fluorescence is measured here before and after addition of substances (λex=488 nm, λem=540 nm). The quantification is performed by measuring the highest fluorescence intensity (FC, fluorescence counts) over time. The FLIPR protocol comprises two additions of substance. […] Lys-Des-[…] bradykinin>=50 nM; rB1R: […] Antagonists lead to a suppression of the Ca^2+ inflow. The % inhibition in comparison with the maximum achievable inhibition is calculated. The substances are added in varying concentrations in order to determine the IC50 value. Double or triple determinations (n=2 or n=3) are performed and these are repeated in at least one further independent experiment (N>=2).

COc1cc(C)c(S(=O)(=O)Nc2ccc3ccn(CCC(=O)NCCN4CCC(c5cccs5)(N(C)C)CC4)c3c2)c(C)c1 [G_CC-22, N-[2-(4-Dimethylamino-4-thiophen-2-yl-piperidin-1-yl)-ethyl]-3-[6-[[(4-methoxy-2,6-dimethyl-phenyl)sulfonyl]amino]-1H-indol-1-yl]-propionamide]
inhibition at 10 µM: 59%

COc1cc(C)c(S(=O)(=O)Nc2cccc3ccn(CCC(=O)N(C)CCCN4CCC(c5cccs5)(N(C)C)CC4)c23)c(C)c1 [G_CC-46, N-[3-(4-Dimethylamino-4-thiophen-2-yl-piperidin-1-yl)-propyl]-3-[7-[[(4-methoxy-2,6-dimethyl-phenyl)sulfonyl]amino]-1H-indol-1-yl]-N-methyl-propionamide]
inhibition at 10 µM: 94%

COc1cc(C)c(S(=O)(=O)Nc2ccc3ccn(CCC(=O)NCCC4CCN(c5ccncc5)CC4)c3c2)c(C)c1 [G_CC-23, 3-[6-[[(4-Methoxy-2,6-dimethyl-phenyl)sulfonyl]amino]-1H-indol-1-yl]-N-[2-(1-pyridin-4-yl-piperidin-4-yl)-ethyl]-propionamide]
inhibition at 10 µM: 63%

Cc1cc(S(=O)(=O)Nc2cccc3ccn(CC(=O)N(C)CCCN4CCC(c5cccs5)(N(C)C)CC4)c23)c(C)cc1Cl [G_CC-26, 2-[7-[[(4-Chloro-2,5-dimethyl-phenyl)sulfonyl]amino]-1H-indol-1-yl]-N-[3-(4-dimethylamino-4-thiophen-2-yl-piperidin-1-yl)-propyl]-N-methyl-acetamide]
inhibition at 10 µM: 81%

O=C(CCn1ccc2cccc(N3Cc4cccc(Cl)c4C3=O)c21)N1CCC2(CC1)CCN(c1ccncc1)CC2 [G_CC-106, 7-Chloro-2-[1-[3-oxo-3-(3-pyridin-4-yl-3,9-diazaspiro[5.5]undecan-9-yl)-propyl]-1H-indol-7-yl]-2,3-dihydro-isoindol-1-one]
inhibition at 10 µM: 86%

COc1cc(C)c(S(=O)(=O)Nc2cccc3ccn(CCC(=O)N4CCN(C5CCN(C)CC5)CC4)c23)c(C)c1 [G_CC-40, 4-Methoxy-2,6-dimethyl-N-[1-[3-[4-(1-methyl-piperidin-4-yl)-piperazin-1-yl]-3-oxo-propyl]-1H-indol-7-yl]-benzenesulfonic acid amide]
inhibition at 10 µM: 86%

COc1cc(C)c(S(=O)(=O)Nc2ccc3ccn(CC(=O)N(C)CCCN4CCC(c5cccs5)(N(C)C)CC4)c3c2)c(C)c1 [G_CC-29, N-[3-(4-Dimethylamino-4-thiophen-2-yl-piperidin-1-yl)-propyl]-2-[6-[[(4-methoxy-2,6-dimethyl-phenyl)sulfonyl]amino]-1H-indol-1-yl]-N-methyl-acetamide]
inhibition at 10 µM: 92%

O=C(CCn1ccc2ccc(N3Cc4cccc(Cl)c4C3=O)cc21)N1CCN(c2ccncc2)CC1 [G_CC-63, 7-Chloro-2-[1-[3-oxo-3-(4-pyridin-4-yl-piperazin-1-yl)-propyl]-1H-indol-6-yl]-2,3-dihydro-isoindol-1-one]
inhibition at 10 µM: 100%

Cc1cc(S(=O)(=O)Nc2cccc3ccn(CCC(=O)N4CCN(C5CCN(C)CC5)CC4)c23)c(C)cc1Cl [G_CC-59, 4-Chloro-2,5-dimethyl-N-[1-[3-[4-(1-methyl-piperidin-4-yl)-piperazin-1-yl]-3-oxo-propyl]-1H-indol-7-yl]-benzenesulfonic acid amide]
inhibition at 10 µM: 87%

COc1cc(C)c(S(=O)(=O)Nc2cccc3ccn(CC(=O)N4CC5CC4CN5Cc4ccncc4)c23)c(C)c1 (centres unmarked) [G_CC-34, 4-Methoxy-2,6-dimethyl-N-[1-[2-oxo-2-[2-(pyridin-4-yl-methyl)-2,5-diazabicyclo[2.2.1]heptan-5-yl]-ethyl]-1H-indol-7-yl]-benzenesulfonic acid amide]
inhibition at 10 µM: 58%

O=C(CCn1ccc2ccc(N3Cc4cccc(Cl)c4C3=O)cc21)N1CCC(Oc2ccncc2)CC1 [G_CC-68, 7-Chloro-2-[1-[3-oxo-3-(4-pyridin-4-yloxy-piperidin-1-yl)-propyl]-1H-indol-6-yl]-2,3-dihydro-isoindol-1-one]
inhibition at 10 µM: 69%

COc1cc(C)c(S(=O)(=O)Nc2cccc3ccn(CC(=O)N4CCC(Oc5ccncc5)CC4)c23)c(C)c1 [G_CC-92, 4-Methoxy-2,6-dimethyl-N-[1-[2-oxo-2-(4-pyridin-4-yloxy-piperidin-1-yl)-ethyl]-1H-indol-7-yl]-benzenesulfonic acid amide]
inhibition at 10 µM: 98%

CN(CCCN1CCN(c2ccncc2)CC1)C(=O)Cn1ccc2ccc(N3Cc4cccc(Cl)c4C3=O)cc21 [G_CC-138, 2-[6-(4-Chloro-3-oxo-1,2-dihydro-isoindol-2-yl)-1H-indol-1-yl]-N-methyl-N-[3-(4-pyridin-4-yl-piperazin-1-yl)-propyl]-acetamide]
inhibition at 10 µM: 52%

COc1cc(C)c(S(=O)(=O)Nc2cccc3ccn(CCC(=O)N(C)CCCN4CCC(c5ccccc5)(N(C)C)CC4)c23)c(C)c1 [G_CC-49, N-[3-(4-Dimethylamino-4-phenyl-piperidin-1-yl)-propyl]-3-[7-[[(4-methoxy-2,6-dimethyl-phenyl)sulfonyl]amino]-1H-indol-1-yl]-N-methyl-propionamide]
inhibition at 10 µM: 92%

COc1cc(C)c(S(=O)(=O)Nc2ccc3ccn(CCC(=O)N(C)CCN4CCC(c5cccc(F)c5)(N5CCN(C)CC5)CC4)c3c2)c(C)c1 [G_CC-81, N-[2-[4-(3-Fluorophenyl)-4-(4-methyl-piperazin-1-yl)-piperidin-1-yl]-ethyl]-3-[6-[[(4-methoxy-2,6-dimethyl-phenyl)sulfonyl]amino]-1H-indol-1-yl]-N-methyl-propionamide]
inhibition at 10 µM: 103%

Cc1cc(S(=O)(=O)Nc2ccc3ccn(CCC(=O)N4CCC5(CC4)CCN(c4ccncc4)CC5)c3c2)c(C)cc1Cl [G_CC-65, 4-Chloro-2,5-dimethyl-N-[1-[3-oxo-3-(3-pyridin-4-yl-3,9-diazaspiro[5.5]undecan-9-yl)-propyl]-1H-indol-6-yl]-benzenesulfonic acid amide]
inhibition at 10 µM: 53%

CN(CCC1CCC(c2ccccc2)(N(C)C)CC1)C(=O)CCn1ccc2ccc(N3Cc4cccc(Cl)c4C3=O)cc21 (centres unmarked) [G_CC-127, 3-[6-(4-Chloro-3-oxo-1,2-dihydro-isoindol-2-yl)-1H-indol-1-yl]-N-[2-(4-dimethylamino-4-phenyl-cyclohexyl)-ethyl]-N-methyl-propionamide]
inhibition at 10 µM: 63%

Cc1cc(S(=O)(=O)Nc2cccc3ccn(CCC(=O)NCCN4CCC(c5cccs5)(N(C)C)CC4)c23)c(C)cc1Cl [G_CC-73, 3-[7-[[(4-Chloro-2,5-dimethyl-phenyl)sulfonyl]amino]-1H-indol-1-yl]-N-[2-(4-dimethylamino-4-thiophen-2-yl-piperidin-1-yl)-ethyl]-propionamide]
inhibition at 10 µM: 55%

COc1cc(C)c(S(=O)(=O)Nc2ccc3ccn(CC(=O)N(C)CCN4CCC(c5cccc(F)c5)(N5CCN(C)CC5)CC4)c3c2)c(C)c1 [G_CC-99, N-[2-[4-(3-Fluorophenyl)-4-(4-methyl-piperazin-1-yl)-piperidin-1-yl]-ethyl]-2-[6-[[(4-methoxy-2,6-dimethyl-phenyl)sulfonyl]amino]-1H-indol-1-yl]-N-methyl-acetamide]
inhibition at 10 µM: 93%

COc1cc(C)c(S(=O)(=O)Nc2cccc3ccn(CCC(=O)N4CCC(CCN5CCCC5)CC4)c23)c(C)c1 [G_CC-41, 4-Methoxy-2,6-dimethyl-N-[1-[3-oxo-3-[4-(2-pyrrolidin-1-yl-ethyl)-piperidin-1-yl]-propyl]-1H-indol-7-yl]-benzenesulfonic acid amide]
inhibition at 10 µM: 76%
